According to patent US5034553A, “Platinum-(II)-diamine complex, method for the preparation of this compound, preparation with an anti-tumour action which contains this compound and also shaped preparations with an anti-tumour action” (Nederlandse Organisatie Voor …, priority 1988, dated 1991):

Experiments:
A2780/DDP = settings: for IC50 ratio: IC50 A2780/DDP versus IC50 A2780
Procedure: (§3) The cytotoxic action of the platinum complex was evaluated in vitro in a cell line panel consisting of B16-F10 murine melanoma, HCT-116 human colon carcinoma, A2780 human ovary carcinoma and 2 sub-lines of A2780 which are resistant to cis-platinum, i.e. A2780/124 and A2780/PPD respectively. The B16-F10 cell line was kept in a culture of Eagle's Minimum Essential Medium (MEM) with Earle's salts (Gibco) enriched with 2 mmol L-glutamine, 2.06 mmol sodium pyruvate, insulin (0.26 units/ml), penicillin/streptomycin (10 units/ml and 10 mcg/ml respectively), MEM non-essential amino acids (0.6% by weight Gibco) and 10% foetal bovine serum (Hyclone). The HCT-116 cells were cultured in McCoy's 5A medium (modified Gibco) which was supplemented with 2 mmol L-glutamine, 0.12 mmol L-serine, 0.17 mmol asparagine, 1.5 mmol sodium pyruvate, MEM essential amino acids (0.625%, Gibco), MEM non-essential amino acids (0.67%, Gibco), MEM vitamins (0.6%, Gibco), foetal calf serum (10%, Hyclone) and penicillin/streptomycin (10 units/ml and 10 mcg/ml). The A2780 cell lines are cultured in RPMI medium 1640 (Gibco Laboratories) supplemented with foetal calf serum (10% Hyclone), 2 mmol L-glutamine and penicillin/streptomycin. All cell lines are incubated at 37° C. in an incubator with 5% by volume CO2 with a high atmospheric humidity.
(§4) Logarithmically growing cells are harvested by mild trypsinisation and 4,000 cells are added to a microtitre plate with 96 wells (Costar). The plates are incubated for one night in 5% by volume CO2 at 37° C. to allow the cells to adhere to the plate. The cells are then treated with the platinum complex or cis-platinum and incubated for 72 hours. […] Formalin (10% by weight) in a phosphate-buffered physiological saline solution is added and the cells are fixed for 10 minutes. […] The spot is rendered soluble with 0.2 ml 0.1M acetic acid/ethanol (1:1) and the optical densities are determined with the aid of a Dynatech MR 600 microtitre plate reader. […]

[1] = system: M5076 reticulum cell sarcoma; test: Action against M5076 sarcoma, subcutaneous implantation, i.v. treatment; assay type: in vivo, BDF1 mice; settings: for T-C: time to 1 gram tumour
Procedure: (§1) The complex was also assessed for anti-tumour action against M5076 sarcoma. BDF1 mice, 8 per group, were inoculated intraperitoneally with 10^6 cells of M5076 or subcutaneously with a fragment of a M5076 tumour.
(§2) Mice with an intraperitoneal tumour were treated intraperitoneally starting 13 days after the implantation and this was continued on days 17, 21 and 25, resulting in 4 treatments in all. Mice with an implanted subcutaneous tumour were treated intravenously starting 5 days after the implantation and again on days 9, 13 and 17. Therefore a total of four treatments. Four doses of the complex were tested. A comparison group treated with physiological saline solution and groups treated with cs-platinum are included in this experiment. The mice were assessed daily for survival and the tests were ended after 75 to 80 days. The anti-tumour action was determined on the basis of a) mean survival time of the mice treated with the active substance relative to that of the untreated mice (% T/C) and b) the mean time for subcutaneously implanted tumours to reach a weight of 1 gram in mice treated with active substance relative to the untreated mice (T-C). A compound is regarded as active if this gives a T/C≥125% or is T-C≥13 days.

[2] = B. Rosenberg et al., Nature 222 (1969); cited from earlier work
[3] = system: M5076 reticulum cell sarcoma; test: Action against M5076 sarcoma, intraperitoneal implantation, i.p. treatment; assay type: in vivo, BDF1 mice
Procedure: as §1, §2

A2780/124 = settings: for IC50 ratio: IC50 A2780/124 versus IC50 A2780
Procedure: as §3, §4

L1210 murine leukaemia = test: Activity against L1210 murine leukaemia; assay type: in vivo, CDF1 mice; settings: for % T/C: once on day 1
Procedure: The platinum complex is investigated for anti-tumour action against L1210 murine leukaemia. CDF1 mice with a weight of 20 g were inoculated intraperitoneally with 10^6 ascitic cells of L1210 leukaemia. The administration of the active substance was started the day following the intraperitoneal implantation of the tumour. The complex is administered in diverse amounts by intraperitoneal injections. Groups of 6 mice are used for each dose and they are treated with a single dose of the complex on the treatment day. A group of ten control mice treated with a physiological saline solution was included in the experiment. The groups treated with cis-platinum are included as positive comparisons. The mice were weighed before the treatment and again on the fifth or sixth day and the average change in weight is taken as a measure of the toxicity. The animals are assessed daily for mortality and the experiments are ended after 30 days. The tumour activity is determined on the basis of % T/C, which is the ratio of mean survival time of the group treated with the active substance relative to the mean survival time of the comparison group treated with a physiological saline solution times 100. The mice treated with physiological saline solution usually have a mean survival time of 7 days. A compound is regarded as active when this gives a % T/C≥125%.

[4] = system: A2780 human ovary carcinoma; test: In vitro cytotoxicity, A2780; assay type: cell-based; settings: A2780, 72 hours
Procedure: (§5) The cytotoxic action of the platinum complex was evaluated in vitro in a cell line panel consisting of B16-F10 murine melanoma, HCT-116 human colon carcinoma, A2780 human ovary carcinoma and 2 sub-lines of A2780 which are resistant to cis-platinum, i.e. A2780/124 and A2780/PPD respectively. The B16-F10 cell line was kept in a culture of Eagle's Minimum Essential Medium (MEM) with Earle's salts (Gibco) enriched with 2 mmol L-glutamine, 2.06 mmol sodium pyruvate, insulin (0.26 units/ml), penicillin/streptomycin (10 units/ml and 10 mcg/ml respectively), MEM non-essential amino acids (0.6% by weight Gibco) and 10% foetal bovine serum (Hyclone). The HCT-116 cells were cultured in McCoy's 5A medium (modified Gibco) which was supplemented with 2 mmol L-glutamine, 0.12 mmol L-serine, 0.17 mmol asparagine, 1.5 mmol sodium pyruvate, MEM essential amino acids (0.625%, Gibco), MEM non-essential amino acids (0.67%, Gibco), MEM vitamins (0.6%, Gibco), foetal calf serum (10%, Hyclone) and penicillin/streptomycin (10 units/ml and 10 mcg/ml). […]
(§6) Logarithmically growing cells are harvested by mild trypsinisation and 4,000 cells are added to a microtitre plate with 96 wells (Costar). […] The spot is rendered soluble with 0.2 ml 0.1M acetic acid/ethanol (1:1) and the optical densities are determined with the aid of a Dynatech MR 600 microtitre plate reader. […]

B16-F10 murine melanoma = test: In vitro cytotoxicity, B16-F10; assay type: cell-based; settings: B16-F10, 72 hours
Procedure: as §5, §6

[5] = system: HCT-116 human colon carcinoma; test: In vitro cytotoxicity, HCT-116; assay type: cell-based; settings: HCT116, 72 hours
Procedure: as §5, §6

[6] = system: B16-F10, HCT-116, A2780, A2780/124 and A2780/DDP; assay type: cell-based, murine and human
Procedure: as §5, §6

[7] = 2.4 mg/kg i.v. on days 5, 9, 13 and 17
[8] = 4.8 mg/kg i.v. on days 5, 9, 13 and 17
[9] = 4 mg/kg i.v. on days 5, 9, 13 and 17
[10] = 6 mg/kg i.v. on days 5, 9, 13 and 17
[11] = 8 mg/kg i.v. on days 5, 9, 13 and 17
[12] = 12 mg/kg i.v. on days 5, 9, 13 and 17

Question: Which results are given for `N.N.[Cl][Pt][Cl]` [Cis-platinum, cis-diamine-dichloroplatinum, reference compound]?
Answer: IC50 ratio (A2780/DDP): 12.6; % T/C [1, 7]: 144%; T-C [1, 7]: 23.3 days; % T/C [1, 8]: 141%; T-C [1, 8]: 31.8 days; anti-tumour activity [2]: very strong anti-tumour activity; % T/C ([3]; 2.4 mg/kg i.p. on days 13, 17, 21 and 25): 164%; % T/C ([3]; 4.8 mg/kg i.p. on days 13, 17, 21 and 25): 166%; IC50 ratio (A2780/124): 10; maximum % T/C (L1210 murine leukaemia; 6-10 mg/kg): 138%

Question: With `CC(C)C(CN)(CN)C(C)C.O=C([O-])C(=O)[O-].[Pt+2]` [TNO-56, 2,2-Diisopropyl-1,3-diaminopropaneoxalatoplatinum (II)] as the compound, how does the IC50 (A2780/DDP; A2780/DDP, 72 hours) read?
Answer: 110 µg/mL

Question: And the IC50 ratio (A2780/DDP)?
Answer: 0.5

Question: What about the “% T/C” value [1, 9] of the same compound?
Answer: 119%

Question: What about the T-C [1, 9] of the same compound?
Answer: 7.8 days

Question: What about the “% T/C” value [1, 10] of the same compound?
Answer: 135%

Question: And the T-C [1, 10]?
Answer: 14.0 days

Question: What about the “% T/C” value [1, 11] of the same compound?
Answer: 140%

Question: What about the T-C [1, 11] of the same compound?
Answer: 21.5 days

Question: What about the “% T/C” value [1, 12] of the same compound?
Answer: 144%

Question: What about the T-C [1, 12] of the same compound?
Answer: 26.8 days

Question: What about the “% T/C and tumour inhibition” value ([1]; dose dependence, i.v.) of the same compound?
Answer: dosage-dependent increase in % T/C and tumour inhibition

Question: What about the IC50 [4] of the same compound?
Answer: 221 µg/mL

Question: What about the “% T/C” value ([3]; 4 mg/kg i.p. on days 13, 17, 21 and 25) of the same compound?
Answer: 139%

Question: And the “% T/C” value ([3]; 6 mg/kg i.p. on days 13, 17, 21 and 25)?
Answer: 154%

Question: What about the “% T/C” value ([3]; 8 mg/kg i.p. on days 13, 17, 21 and 25) of the same compound?
Answer: 161%

Question: What about the “% T/C” value ([3]; 12 mg/kg i.p. on days 13, 17, 21 and 25) of the same compound?
Answer: 193%

Question: And the “activity” value ([3]; all doses tested, i.p.)?
Answer: active

Question: What about the IC50 (B16-F10 murine melanoma) of the same compound?
Answer: 43 µg/mL

Question: And the IC50 (A2780/124; A2780/124, 72 hours)?
Answer: 155 µg/mL

Question: What about the IC50 ratio (A2780/124) of the same compound?
Answer: 0.7

Question: And the IC50 [5]?
Answer: 115 µg/mL

Question: And the “% T/C” value (L1210 murine leukaemia; 10 mg/kg i.p.)?
Answer: 125%

Question: What about the “% T/C” value (L1210 murine leukaemia; 20 mg/kg i.p.) of the same compound?
Answer: 144%

Question: What about the “% T/C” value (L1210 murine leukaemia; 40 mg/kg i.p.) of the same compound?
Answer: 88%

Question: And the “activity” value (L1210 murine leukaemia; 10 and 20 mg/kg i.p., active if % T/C≥125%)?
Answer: active

Question: What about the “cytotoxic action” value [6] of the same compound?
Answer: cytotoxic for all five cell lines
